The values below come from publication PMC5612938, “A multiple biomarker assay for quality assessment of botanical drugs using a versatile microfluidic chip” (Scientific Reports, 2017).

This test deals with T1, ACE (from rabbit lung) (Oryctolagus cuniculus, UniProt P12822).
T1 construct: ACE (from rabbit lung); purchased Sigma-Aldrich; host or cells: rabbit lung
T1 sequence (P12822 34-1310): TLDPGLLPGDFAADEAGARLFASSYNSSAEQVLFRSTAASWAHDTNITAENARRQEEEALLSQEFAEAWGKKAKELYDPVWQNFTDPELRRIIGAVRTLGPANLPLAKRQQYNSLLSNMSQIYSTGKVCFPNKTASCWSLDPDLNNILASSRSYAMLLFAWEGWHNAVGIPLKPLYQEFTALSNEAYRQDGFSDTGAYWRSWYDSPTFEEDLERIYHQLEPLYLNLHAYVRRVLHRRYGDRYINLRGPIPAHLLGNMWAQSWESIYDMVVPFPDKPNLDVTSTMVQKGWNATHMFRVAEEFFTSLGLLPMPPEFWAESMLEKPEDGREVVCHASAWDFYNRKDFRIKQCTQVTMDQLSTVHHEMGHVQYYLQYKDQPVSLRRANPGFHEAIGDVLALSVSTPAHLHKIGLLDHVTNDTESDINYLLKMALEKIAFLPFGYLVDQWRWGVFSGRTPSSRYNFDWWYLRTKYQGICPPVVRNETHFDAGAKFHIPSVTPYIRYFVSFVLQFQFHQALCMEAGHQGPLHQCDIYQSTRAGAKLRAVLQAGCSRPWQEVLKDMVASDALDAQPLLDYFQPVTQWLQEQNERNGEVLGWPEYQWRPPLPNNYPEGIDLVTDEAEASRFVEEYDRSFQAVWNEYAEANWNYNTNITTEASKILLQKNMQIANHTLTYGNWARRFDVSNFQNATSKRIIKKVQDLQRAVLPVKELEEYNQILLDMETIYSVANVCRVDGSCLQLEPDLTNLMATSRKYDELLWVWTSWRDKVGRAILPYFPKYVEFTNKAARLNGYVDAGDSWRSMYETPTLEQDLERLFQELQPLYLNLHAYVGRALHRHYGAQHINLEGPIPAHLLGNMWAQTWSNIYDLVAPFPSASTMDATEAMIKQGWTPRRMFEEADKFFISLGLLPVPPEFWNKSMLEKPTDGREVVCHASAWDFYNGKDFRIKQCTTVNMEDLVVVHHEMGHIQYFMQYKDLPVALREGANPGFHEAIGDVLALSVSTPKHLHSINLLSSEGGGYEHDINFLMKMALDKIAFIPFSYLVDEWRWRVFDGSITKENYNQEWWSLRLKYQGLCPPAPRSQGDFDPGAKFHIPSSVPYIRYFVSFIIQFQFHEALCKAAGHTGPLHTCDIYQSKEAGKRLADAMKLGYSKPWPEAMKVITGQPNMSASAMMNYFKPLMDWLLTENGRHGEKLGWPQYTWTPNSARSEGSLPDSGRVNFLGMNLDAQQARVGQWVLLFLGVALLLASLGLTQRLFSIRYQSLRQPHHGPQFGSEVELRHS
Kind of test: on-chip affinity screening, binding degree by LC-MS peak area vs protein-free control (ACE). The settings on record: for ACE; [(As − Ac)/As] × 100, sample vs protein-free control, EIC peak area. The text has this:
In addition to quality assessment, the microfluidic chip can also function as “affinity chromatography” to identify bioactive constituents from botanical drugs in a convenient and efficient manner. After the bioassay, the bound phytochemicals were dissociated from the enzymes and accurately identified by LC-MS. The material used for the chambers in microfluidic system, polydimethylsiloxane (PDMS), is apt to adsorb small molecules nonspecifically, thus a protein-free control was applied to reflect the degree of nonspecific binding of compounds to the chip. Peak areas were obtained from the extracted ion chromatography (EIC) in an ion-trap mass spectrometry (IT-MS), and binding degree (binding degree % = [(As − Ac)/As] × 100, where As and Ac were the peak area in the sample and control, respectively) was calculated to indicate binding specificity. […] All these peaks were unambiguously confirmed via comparisons with chemical standards in terms of retention time and mass spectra (Table 2), and five thrombin inhibitors (danshensu, salvianolic acid B, salvianolic acid C, rosmarinic acid and ginsenoside Rg1) and six ACE inhibitors (astragaloside IV, ononin, formononetin, calycosin, danshensu and salvianolic acid B) were preliminarily identified. […] Enzyme inhibition assays of these hit compounds were then performed to verify the screening results. […] Compounds showing an inhibition rate over 70% were subjected to IC50 measurement.
MBs (10 mg/mL) were diluted 10 times in PB or Tris-HCl buffer, and 10 μL of the diluted MBs (1 mg/mL) were injected into one channel of the chip using a syringe infusion pump (Harvard Apparatus, USA) and retained by an external magnet. Then, 10 μL of thrombin or ACE solution was added and incubated with MBs for two hours at room temperature to form enzyme-MB complexes. The magnet was manually controlled to move MBs back and forth to enhance the ratio of reaction. Subsequently, MBs were washed twice in assay buffer and magnetically transferred to the other channel through the fluidic bridge, whose opening and closing was controlled by a pneumatic valve. Next, 10 μL of sample solutions of tested drug and 10 μL of enzymatic substrate were sequentially infused to the channel by the pump and incubated with the enzyme. When the enzymatic reaction was finished, the MBs were retained in the channel, and air was injected into the channel from the inlet using a syringe to push all the reacted solution to a 384-well plate. The absorbance of the solution was then monitored at 405 nm (for S-2238) or 340 nm (for FAPGG) using an Infinite F200 spectrophotometer (Tecan, Männedorf, Switzerland). Moreover, after detection, the reaction channel was washed three times by assay buffer to remove unbound constituents. 20 μL of 80% aqueous methanol was then injected and incubated with MBs for one hour to dissociate the bound constituents. The resulting solutions of replicates were combined, evaporated by a centrifugal evaporator, reconstituted in 80% aqueous methanol, centrifuged at 10,000 rpm for 10 min, and analyzed by LC-MS for chemical identification.
An Agilent 1100 HPLC system (Agilent Technologies, Waldbronn, Germany) coupled with an LCQ Deca XP^plus IT-MS (Thermo Finnigan, San Jose, CA, USA) equipped with an electrospray ionization (ESI) interface was employed for structure elucidation of the bounded constituents. The analysis was performed in negative ionization mode under following operation parameters: scan range m/z 100–1500; capillary voltage −15 V; source voltage −3 kV; capillary temperature 350 °C; sheath gas (N2) 60 arb; auxiliary gas (N2) 20 arb.

For the compound `O=C(O)C(O)Cc1ccc(O)c(O)c1` (centres unmarked) [Danshensu], the “Binding degree (%)” value was determined as 57.2%.

Take `O=C(/C=C/c1ccc(O)c2c1[C@H](C(=O)O[C@H](Cc1ccc(O)c(O)c1)C(=O)O)[C@@H](c1ccc(O)c(O)c1)O2)O[C@H](Cc1ccc(O)c(O)c1)C(=O)O` [Salvianolic acid B]: the “Binding degree (%)” value is reported as 41.3%.
